Laboratory results: patent US20250122174A1 (Shenzhen Yuanli Shenwan Innovative Medicine Co., Ltd., priority 2022, published 2025)

target: HPK1 (Homo sapiens (Human), UniProt Q92918); assay: HPK1 Inhibition Assay (ADP-Glo kinase assay); type: biochemical; settings: ATP 10 μM
In short: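 ADP-Glo luminescence read-out after 1 h room-temperature kinase reaction with 10 μM ATP and 0.1 μg/ml MBP. Recombinant human HPK1 at 7.5 ng/μl; buffer 40 mM Tris pH 7.5, 20 mM MgCl2. Compounds serially diluted 5-fold over 10 points from 10 mM DMSO stock.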

Sequence of HPK1 (Q92918 1-346 limits assumed): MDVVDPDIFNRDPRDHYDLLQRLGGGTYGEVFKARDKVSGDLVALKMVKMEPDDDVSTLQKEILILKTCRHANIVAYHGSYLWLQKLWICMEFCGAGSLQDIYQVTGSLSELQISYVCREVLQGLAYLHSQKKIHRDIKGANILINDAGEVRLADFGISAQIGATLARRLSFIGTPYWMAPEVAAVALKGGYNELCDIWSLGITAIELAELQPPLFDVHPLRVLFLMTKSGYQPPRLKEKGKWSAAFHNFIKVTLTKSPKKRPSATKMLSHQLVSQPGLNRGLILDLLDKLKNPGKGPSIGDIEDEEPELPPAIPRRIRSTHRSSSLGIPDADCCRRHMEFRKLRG

IC50, < 100 nM:
CC(C)n1ncc2c(N3C[C@@H](N)C[C@H]3CO)c(NC(=O)c3ccc(=O)n(-c4c(F)cccc4F)n3)ccc21 [Example 212, N-(4-((25,4S)-4-amino-2-(hydroxymethyl)pyrrolidin-1-yl)-1-isopropyl-1H-indazol-5-yl)-1-(2,6-difluorophenyl)-6-oxo-1,6-dihydropyridazine-3-carboxamide]
CC(C)n1ncc2c(N3CC[C@@H](NCCO)C3)c(NC(=O)c3ccc(=O)n(-c4c(F)cccc4F)n3)ccc21 [Example 213, (R)-1-(2,6-difluorophenyl)-N-(4-(3-((2-hydroxyethyl)amino)pyrrolidin-1-yl)-1-isopropyl-1H-indazol-5-yl)-6-oxo-1,6-dihydropyridazine-3-carboxamide]
CC(C)n1ncc2c(N3C[C@@H](C)[C@@H](NCCO)C3)c(NC(=O)c3ccc(=O)n(-c4c(F)cccc4F)n3)ccc21 [Example 214, 1-(2,6-difluorophenyl)-N-(4-((3R,4R)-3-((2-hydroxyethyl)amino)-4-methylpyrrolidin-1-yl)-1-isopropyl-1H-indazol-5-yl)-6-oxo-1,6-dihydropyridazine-3-carboxamide]
CC(C)n1ncc2c(N3C[C@@H](C)[C@@H](N)C3)c(NC(=O)c3ccc(=O)n(-c4ccccc4F)n3)ccc21 [Example 215, N-(4-((3R,4R)-3-amino-4-methylpyrrolidin-1-yl)-1-isopropyl-1H-indazol-5-yl)-1-(2-fluorophenyl)-6-oxo-1,6-dihydropyridazine-3-carboxamide]
CC[C@@H]1CN(c2c(NC(=O)c3ccc(=O)n(-c4c(F)cccc4F)n3)cc(F)c3c2cnn3C(C)C)C[C@@H]1N [Example 216, N-(4-((3R,4R)-3-amino-4-ethylpyrrolidin-1-yl)-7-fluoro-1-isopropyl-1H-indazol-5-yl)-1-(2,6-difluorophenyl)-6-oxo-1,6-dihydropyridazine-3-carboxamide]
CC(C)n1ncc2c(N3CCC(N)CC3)c(NC(=O)c3ccc(=O)n(-c4c(F)cccc4F)n3)cc(F)c21 [Example 217, N-(4-(4-aminopiperidin-1-yl)-7-fluoro-1-isopropyl-1H-indazol-5-yl)-1-(2,6-difluorophenyl)-6-oxo-1,6-dihydropyridazine-3-carboxamide]
Cc1nn(C(C)C)c2c(F)cc(NC(=O)c3ccc(=O)n(-c4c(F)cccc4F)n3)c(N3C[C@@H](C)[C@@H](N)C3)c12 [Example 218, N-(4-((3R,4R)-3-amino-4-methylpyrrolidin-1-yl)-7-fluoro-1-isopropyl-3-methyl-1H-indazol-5-yl)-1-(2,6-difluorophenyl)-6-oxo-1,6-dihydropyridazine-3-carboxamide]
CC(C)n1ncc2c(N3C[C@H]4CNC[C@H]4C3)c(NC(=O)c3ccc(=O)n(-c4c(F)cccc4F)n3)cc(F)c21 [Example 219, 1-(2,6-difluorophenyl)-N-(7-fluoro-4-((3aR,6aS)-hexahydropyrrolo[3,4-c]pyrrol-2(1H)-yl)-1-isopropyl-1H-indazol-5-yl)-6-oxo-1,6-dihydropyridazine-3-carboxamide]
CC(C)n1cc2c(N3CC[C@@](C)(N)C3)c(NC(=O)c3ccc(=O)n(-c4c(F)cccc4F)n3)ccc2n1 [Example 220, (R)—N-(4-(3-amino-3-methylpyrrolidin-1-yl)-2-isopropyl-2H-indazol-5-yl)-1-(2,6-difluorophenyl)-6-oxo-1,6-dihydropyridazine-3-carboxamide]
CC(C)n1cc2c(N3CC[C@@H](CN)C3)c(NC(=O)c3ccc(=O)n(-c4c(F)cccc4F)n3)cc(F)c2n1 [Example 221, (S)-N-(4-(3-(aminomethyl)pyrrolidin-1-yl)-7-fluoro-2-isopropyl-2H-indazol-5-yl)-1-(2,6-difluorophenyl)-6-oxo-1,6-dihydropyridazine-3-carboxamide]
CC(C)n1cc2c(N3CC[C@@H](N)C3)c(NC(=O)c3ccc(=O)n(-c4c(F)cccc4F)n3)cc(F)c2n1 [Example 222, (R)-N-(4-(3-aminopyrrolidin-1-yl)-7-fluoro-2-isopropyl-2H-indazol-5-yl)-1-(2,6-difluorophenyl)-6-oxo-1,6-dihydropyridazine-3-carboxamide]
CC(C)n1nc2c(F)cc(NC(=O)c3ccc(=O)n(-c4c(F)cccc4F)n3)c(N3CC[C@@H](N)C3)c2c1Cl [Example 223, (R)-N-(4-(3-aminopyrrolidin-1-yl)-3-chloro-7-fluoro-2-isopropyl-2H-indazol-5-yl)-1-(2,6-difluorophenyl)-6-oxo-1,6-dihydropyridazine-3-carboxamide]
CC(C)n1cc2c(N3C[C@@H](C)[C@@H](N)C3)c(NC(=O)c3ccc(=O)n(-c4c(F)cccc4F)n3)ccc2n1 [Example 224, N-(4-((3R,4R)-3-amino-4-methylpyrrolidin-1-yl)-2-isopropyl-2H-indazol-5-yl)-1-(2,6-difluorophenyl)-6-oxo-1,6-dihydropyridazine-3-carboxamide]
CC(C)n1cc2c(N3CCC[C@@H]3CN)c(NC(=O)c3ccc(=O)n(-c4c(F)cccc4F)n3)ccc2n1 [Example 225, (R)-N-(4-(2-(aminomethyl)pyrrolidin-1-yl)-2-isopropyl-2H-indazol-5-yl)-1-(2,6-difluorophenyl)-6-oxo-1,6-dihydropyridazine-3-carboxamide]
Cc1cc(NC(=O)c2ccc(=O)n(-c3c(F)cccc3F)n2)c(N2CC[C@@H](N)C2)c2cn(C(C)C)nc12 [Example 226, (R)-N-(4-(3-aminopyrrolidin-1-yl)-2-isopropyl-7-methyl-2H-indazol-5-yl)-1-(2,6-difluorophenyl)-6-oxo-1,6-dihydropyridazine-3-carboxamide]
CC(C)n1cc2c(N3C[C@H](N)C(C)(C)C3)c(NC(=O)c3ccc(=O)n(-c4c(F)cccc4F)n3)ccc2n1 [Example 227, (R)-N-(4-(4-amino-3,3-dimethylpyrrolidin-1-yl)-2-isopropyl-2H-indazol-5-yl)-1-(2,6-difluorophenyl)-6-oxo-1,6-dihydropyridazine-3-carboxamide]
CC(C)n1cc2c(N3C[C@@H](N)C(C)(C)C3)c(NC(=O)c3ccc(=O)n(-c4c(F)cccc4F)n3)ccc2n1 [Example 228, (S)-N-(4-(4-amino-3,3-dimethylpyrrolidin-1-yl)-2-isopropyl-2H-indazol-5-yl)-1-(2,6-difluorophenyl)-6-oxo-1,6-dihydropyridazine-3-carboxamide]
CC(C)n1cc2c(N3C[C@H](N)C4(CC4)C3)c(NC(=O)c3ccc(=O)n(-c4c(F)cccc4F)n3)ccc2n1 [Example 229]
CC(C)n1cc2c(N3CCC(N)CC3)c(NC(=O)c3ccc(=O)n(-c4c(F)cccc4F)n3)ccc2n1 [Example 230, N-(4-(4-aminopiperidin-1-yl)-2-isopropyl-2H-indazol-5-yl)-1-(2,6-difluorophenyl)-6-oxo-1,6-dihydropyridazine-3-carboxamide]
CC(C)n1cc2c(N3C[C@H](C)[C@@H](N)C3)c(NC(=O)c3ccc(=O)n(-c4c(F)cccc4F)n3)ccc2n1 [Example 231, N-(4-((3R,4S)-3-amino-4-methylpyrrolidin-1-yl)-2-isopropyl-2H-indazol-5-yl)-1-(2,6-difluorophenyl)-6-oxo-1,6-dihydropyridazine-3-carboxamide]
CC(C)n1cc2c(N3CCC[C@@H](N)C3)c(NC(=O)c3ccc(=O)n(-c4c(F)cccc4F)n3)ccc2n1 [Example 232, (R)-N-(4-(3-aminopiperidin-1-yl)-2-isopropyl-2H-indazol-5-yl)-1-(2,6-difluorophenyl)-6-oxo-1,6-dihydropyridazine-3-carboxamide]
CC(C)n1cc2c(N3C[C@@H]4C[C@H]3CN4)c(NC(=O)c3ccc(=O)n(-c4c(F)cccc4F)n3)cc(F)c2n1 [Example 233, N-(4-((1S,4S)-2,5-diazabicyclo[2.2.1]heptan-2-yl)-7-fluoro-2-isopropyl-2H-indazol-5-yl)-1-(2,6-difluorophenyl)-6-oxo-1,6-dihydropyridazine-3-carboxamide]
C[C@@H]1CN(c2c(NC(=O)c3ccc(=O)n(-c4c(F)cccc4F)n3)ccc3nn(C(C)(C)C)cc23)C[C@@H]1N [Example 234, N-[4-[(3R,4R)-3-amino-4-methyl-pyrrolidin-1-yl]-2-tert-butyl-indazol-5-yl]-1-(2,6-difluorophenyl)-6-oxo-pyridazine-3-carboxamide]
CC(C)(C)n1cc2c(N3C[C@H](N)C4(CC4)C3)c(NC(=O)c3ccc(=O)n(-c4c(F)cccc4F)n3)ccc2n1 [Example 235, (R)-N-(4-(7-amino-5-azaspiro[2.4]heptan-5-yl)-2-(tert-butyl)-2H-indazol-5-yl)-1-(2,6-difluorophenyl)-6-oxo-1,6-dihydropyridazine-3-carboxamide]
CC1(C)CN(c2c(NC(=O)c3ccc(=O)n(-c4c(F)cccc4F)n3)ccc3nn(C(C)(C)C)cc23)C[C@@H]1N [Example 236, (R)-N-(4-(4-amino-3,3-dimethylpyrrolidin-1-yl)-2-(tert-butyl)-2H-indazol-5-yl)-1-(2,6-difluorophenyl)-6-oxo-1,6-dihydropyridazine-3-carboxamide]
CC1(C)CN(c2c(NC(=O)c3ccc(=O)n(-c4c(F)cccc4F)n3)ccc3nn(C(C)(C)C)cc23)C[C@H]1N [Example 237, (S)-N-(4-(4-amino-3,3-dimethylpyrrolidin-1-yl)-2-(tert-butyl)-2H-indazol-5-yl)-1-(2,6-difluorophenyl)-6-oxo-1,6-dihydropyridazine-3-carboxamide]
